Tests used:
[1] = Compound cytotoxicity, XTT-based colorimetric assay; assay type: cell-based; conditions: human, uninfected MT2 cells, day 4, XTT
Protocol: Compound cytotoxicity and the corresponding CC50 values were determined using the same protocol as described in the antiviral assay except that uninfected cells were used. Cytotoxicity was assessed on day 4 in uninfected MT2 cells by using a XTT (2,3-bis[2-Methoxy-4-nitro-5-sulfophenyl]-2H-tetrazolium-5-carboxyanilide inner salt)-based colorimetric assay (Sigma-Aldrich, St Louis, Mo.).

[2] = tested on: recombinant NL4-3 virus (Renilla luciferase in nef) in MT-2 cells; assay: whole plant or invertebrate; assay type: cell-based, HIV; conditions: Renilla, NL43, MT-2 cells infected for 4-5 days with recombinant NL4-3 Renilla luciferase virus; luciferase activity
Protocol: HIV cell culture assay—MT-2 cells, 293T cells and the proviral DNA clone of NL4-3 virus were obtained from the NIH AIDS Research and Reference Reagent Program. MT-2 cells were propagated in RPMI 1640 media supplemented with 10% heat inactivated fetal bovine serum (FBS), 100 μg/ml penicillin G and up to 100 units/mL streptomycin. The 293T cells were propagated in DMEM media supplemented with 10% heat inactivated FBS, 100 μg/mL penicillin G and 100 μg/mL streptomycin. A recombinant NL4-3 proviral clone, in which a section of the nef gene was replaced with the Renilla luciferase gene, was used to make the reference virus used in these studies. The recombinant virus was prepared through transfection of the recombinant NL4-3 proviral clone into 293T cells using Transit-293 Transfection Reagent from Mirus Bio LLC (Madison, Wis.). Supernatent was harvested after 2-3 days and the amount of virus present was titered in MT-2 cells using luciferase enzyme activity as a marker by measuring luciferase enzyme activity. Luciferase was quantitated using the EnduRen Live Cell Substrate from Promega (Madison, Wis.). Antiviral activities of compounds toward the recombinant virus were quantified by measuring luciferase activity in MT-2 cells infected for 4-5 days with the recombinant virus in the presence of serial dilutions of the compound.
(Johnson V A, Byington R T. Infectivity Assay. In Techniques in HIV Research. ed. Aldovini A, Walker BD. 71-76. New York: Stockton Press.1990).

Compound `COc1ccc(N(C)C(=O)[C@H](Cc2ccccc2)NS(=O)(=O)NC(=O)N[C@@H](Cc2ccccc2)C(=O)N(C)c2ccc3scnc3c2)cc1` [Example 35] has a CC50 at 4 days [1] of 99.9 µM and an EC50 [2] of 0.03 µM.

Compound `O=C(N[C@@H](Cc1cc(F)cc(F)c1)c1ncccc1Br)NS(=O)(=O)N[C@@H](Cc1cc(F)cc(F)c1)c1ncccc1Br` [Example 36] has a CC50 at 4 days [1] of 65.3 µM and an EC50 [2] of 7.27 µM.

`COc1ccc(N(C)C(=O)[C@H](Cc2ccccc2)NC(=O)Cn2c(=O)n(CC(=O)N[C@@H](Cc3ccccc3)C(=O)N(C)c3ccc(OC)cc3)c3ccccc32)cc1` [Example 37] gave a CC50 at 4 days [1] of 19.9 µM and an EC50 [2] of 0.07 µM.

With `COc1ccc(N(C)C(=O)[C@H](Cc2ccccc2)NC(=O)Cc2ccccc2CC(=O)N[C@@H](Cc2ccccc2)C(=O)N(C)c2ccc(OC)cc2)cc1` [Example 38] the CC50 at 4 days [1] was 45 µM and the EC50 [2] was 0.55 µM.

`COc1ccc(N(C)C(=O)[C@H](Cc2ccccc2)NC(=O)c2cccc(C(=O)N[C@@H](Cc3ccccc3)C(=O)N(C)c3ccc(OC)cc3)n2)cc1` [Example 39] showed a CC50 at 4 days [1] of at least 33.3 µM and an EC50 [2] of 0.95 µM.

`COc1ccc(N(C)C(=O)[C@H](Cc2ccccc2)NC(=O)CCN2CCN(CCC(=O)N[C@@H](Cc3ccccc3)C(=O)N(C)c3ccc(OC)cc3)CC2)cc1` [Example 40] gave a CC50 at 4 days [1] of 36 µM and an EC50 [2] of 0.31 µM.

`COc1ccc(N(C)C(=O)[C@H](Cc2ccccc2)NC(=O)CCSCCC(=O)N[C@@H](Cc2ccccc2)C(=O)N(C)c2ccc(OC)cc2)cc1` [Example 41] gave a CC50 at 4 days [1] of 23 µM and an EC50 [2] of 0.1 µM.

With `COc1ccc(N(C)C(=O)[C@H](Cc2ccccc2)NC(=O)Cc2cccc(CC(=O)N[C@@H](Cc3ccccc3)C(=O)N(C)c3ccc(OC)cc3)c2)cc1` [Example 42] the CC50 at 4 days [1] was 40.7 µM and the EC50 [2] was 0.85 µM.

For `COc1ccc(N(C)C(=O)[C@H](Cc2cc(F)cc(F)c2)NC(=O)Cc2cccc(CC(=O)N[C@@H](Cc3cc(F)cc(F)c3)C(=O)N(C)c3ccc(OC)cc3)c2)cc1` [Example 43], the CC50 at 4 days [1] was 3.7 µM and the EC50 [2] was 0.48 µM.

Compound `COc1ccc(N(C)C(=O)[C@H](Cc2ccccc2)NC(=O)NS(=O)(=O)N[C@@H](Cc2cc(F)cc(F)c2)C(=O)N(C)c2ccc(OC)cc2)cc1` [Example 44] has a CC50 at 4 days [1] of 67 µM and an EC50 [2] of 0.02 µM.

`COc1ccc(N(C)C(=O)[C@H](Cc2cc(F)cc(F)c2)NC(=O)NS(=O)(=O)N[C@@H](Cc2ccccc2)C(=O)N(C)c2ccc(OC)cc2)cc1` [Example 45] showed a CC50 at 4 days [1] of 38.8 µM and an EC50 [2] of 0.01 µM.

Compound `COc1ccc(N(C)C(=O)[C@H](Cc2ccccc2)NC(=O)Cc2ccc(CC(=O)N[C@@H](Cc3ccccc3)C(=O)N(C)c3ccc(OC)cc3)cc2)cc1` [Example 47] has a CC50 at 4 days [1] of 11.1 µM and an EC50 [2] of 2.76 µM.

`COc1ccc(N(C)C(=O)[C@H](Cc2ccccc2)NC(=O)CN2CCN(CC(=O)N[C@@H](Cc3ccccc3)C(=O)N(C)c3ccc(OC)cc3)C2=O)cc1` [Example 48] showed a CC50 at 4 days [1] of 30.9 µM and an EC50 [2] of 0.17 µM.

In the case of `COc1ccc(N(C)C(=O)[C@H](Cc2cc(F)cc(F)c2)NC(=O)c2cccc(C(=O)N[C@@H](Cc3cc(F)cc(F)c3)C(=O)N(C)c3ccc(OC)cc3)c2)cc1` [Example 49], the CC50 at 4 days [1] is reported as 10.8 µM and the EC50 [2] is reported as 0.04 µM.

Compound `CN(C(=O)[C@H](Cc1ccccc1)NC(=O)c1cccc(C(=O)N[C@@H](Cc2ccccc2)C(=O)N(C)c2ccc3scnc3c2)c1)c1ccc2scnc2c1` [Example 50] has a CC50 at 4 days [1] of 3.7 µM and an EC50 [2] of 0.04 µM.

Compound `CN(C(=O)[C@H](Cc1cc(F)cc(F)c1)NC(=O)c1cccc(C(=O)N[C@@H](Cc2cc(F)cc(F)c2)C(=O)N(C)c2ccc3scnc3c2)c1)c1ccc2scnc2c1` [Example 51] has a CC50 at 4 days [1] of at least 100 µM and an EC50 [2] of 0.01 µM.

Work on `COc1ccc(N(C)C(=O)[C@H](Cc2ccccc2)NC(=O)[C@@H]2CC[C@H](C(=O)N[C@@H](Cc3ccccc3)C(=O)N(C)c3ccc(OC)cc3)C2)cc1` [Example 52] yielded a CC50 at 4 days [1] of 22.6 µM and an EC50 [2] of 1.14 µM.

`COc1ccc(N(C)C(=O)[C@H](Cc2ccccc2)NC(=O)c2cc(C(=O)O)cc(C(=O)N[C@@H](Cc3ccccc3)C(=O)N(C)c3ccc(OC)cc3)c2)cc1` [Example 55] showed a CC50 at 4 days [1] of 85.8 µM and an EC50 [2] of 10.1 µM.

`COc1ccc(N(C)C(=O)[C@H](Cc2ccccc2)NC(=O)OCCOC(=O)N[C@@H](Cc2ccccc2)C(=O)N(C)c2ccc(OC)cc2)cc1` [Example 56] gave a CC50 at 4 days [1] of 10.5 µM and an EC50 [2] of 2.6 µM.

`COc1ccc(N(C)C(=O)[C@H](Cc2ccccc2)NC(=O)c2cc(C(=O)N[C@@H](Cc3ccccc3)C(=O)N(C)c3ccc(OC)cc3)[nH]n2)cc1` [Example 57] showed a CC50 at 4 days [1] of 3.5 µM and an EC50 [2] of 1.58 µM.

With `COc1ccc(N(C)C(=O)[C@H](Cc2ccccc2)NC(=O)c2ccc(C(=O)N[C@@H](Cc3ccccc3)C(=O)N(C)c3ccc(OC)cc3)s2)cc1` [Example 58] the CC50 at 4 days [1] was 3.3 µM and the EC50 [2] was 0.61 µM.

`COc1ccc(N(C)C(=O)[C@H](Cc2ccccc2)NC(=O)c2nc[nH]c2C(=O)N[C@@H](Cc2ccccc2)C(=O)N(C)c2ccc(OC)cc2)cc1` [Example 59] showed a CC50 at 4 days [1] of 11 µM and an EC50 [2] of 3.34 µM.

In the case of `COc1ccc(N(C)C(=O)[C@H](Cc2ccccc2)NC(=O)Cc2cn(CC(=O)N[C@@H](Cc3ccccc3)C(=O)N(C)c3ccc(OC)cc3)c3ccccc23)cc1` [Example 61], the CC50 at 4 days [1] is reported as 32.6 µM and the EC50 [2] is reported as 0.61 µM.

For `COc1ccc(N(C)C(=O)[C@H](Cc2ccccc2)NC(=O)[C@H](Cc2ccccc2)NC(=O)N[C@@H](Cc2ccccc2)C(=O)N[C@@H](Cc2ccccc2)C(=O)N(C)c2ccc(OC)cc2)cc1` [Example 62], the CC50 at 4 days [1] was at least 100 µM and the EC50 [2] was 0.49 µM.

Work on `COc1ccc(N(C)C(=O)[C@H](Cc2ccccc2)NC(=O)CS(=O)(=O)N[C@@H](Cc2ccccc2)C(=O)N(C)c2ccc(OC)cc2)cc1` [Example 63] yielded a CC50 at 4 days [1] of 30.2 µM and an EC50 [2] of 1.09 µM.

`COc1ccc(N(C)C(=O)[C@H](Cc2cc(F)cc(F)c2)NC(=O)CS(=O)(=O)N[C@@H](Cc2cc(F)cc(F)c2)C(=O)N(C)c2ccc(OC)cc2)cc1` [Example 64] showed a CC50 at 4 days [1] of 11.3 µM and an EC50 [2] of 0.38 µM.

`CN(C(=O)[C@H](Cc1ccccc1)NC(=O)CS(=O)(=O)N[C@@H](Cc1ccccc1)C(=O)N(C)c1ccc2scnc2c1)c1ccc2scnc2c1` [Example 65] gave a CC50 at 4 days [1] of 34.6 µM and an EC50 [2] of 0.32 µM.

Compound `COc1ccc(N(C)C(=O)[C@H](Cc2ccccc2)NC(=O)CNC(=O)NCC(=O)N[C@@H](Cc2ccccc2)C(=O)N(C)c2ccc(OC)cc2)cc1` [Example 68] has a CC50 at 4 days [1] of 69.3 µM and an EC50 [2] of 1.42 µM.

In the case of `COc1ccc(N(C)C(=O)[C@H](Cc2cc(F)cc(F)c2)NC(=O)Cn2c(=O)n(CC(=O)N[C@@H](Cc3cc(F)cc(F)c3)C(=O)N(C)c3ccc(OC)cc3)c3ccccc32)cc1` [Example 69], the CC50 at 4 days [1] is reported as 11.8 µM and the EC50 [2] is reported as 0.02 µM.

`NC(=O)c1cc(-c2cccnc2[C@H](Cc2cc(F)cc(F)c2)NC(=O)NS(=O)(=O)N[C@@H](Cc2cc(F)cc(F)c2)c2ncccc2-c2ccc(F)c(C(N)=O)c2)ccc1F` [Example 70] showed a CC50 at 4 days [1] of at least 100 µM and an EC50 [2] of 0.15 µM.

`COc1ccc(N(C)C(=O)[C@H](Cc2ccccc2)NC(=O)Cn2c(=O)n(CC(=O)N[C@@H](Cc3ccccc3)C(=O)N(C)c3ccc(OC)cc3)c3cc(Cl)ccc32)cc1` [Example 71] gave a CC50 at 4 days [1] of 6.5 µM and an EC50 [2] of 0.08 µM.

Compound `COc1ccc(N(C)C(=O)[C@H](Cc2cc(F)cc(F)c2)NC(=O)Cn2c(=O)n(CC(=O)N[C@@H](Cc3cc(F)cc(F)c3)C(=O)N(C)c3ccc(OC)cc3)c3cc(Cl)ccc32)cc1` [Example 72] has a CC50 at 4 days [1] of 4.4 µM and an EC50 [2] of 0.04 µM.

With `COc1ccc(N(C)C(=O)[C@H](Cc2ccccc2)NC(=O)Cn2c(=O)n(CC(=O)N[C@@H](Cc3ccccc3)C(=O)N(C)c3ccc(OC)cc3)c3c(Cl)cccc32)cc1` [Example 73] the CC50 at 4 days [1] was 39.9 µM and the EC50 [2] was 0.07 µM.

Compound `COc1ccc(N(C)C(=O)[C@H](Cc2cc(F)cc(F)c2)NC(=O)Cn2c(=O)n(CC(=O)N[C@@H](Cc3cc(F)cc(F)c3)C(=O)N(C)c3ccc(OC)cc3)c3c(Cl)cccc32)cc1` [Example 74] has a CC50 at 4 days [1] of 11.3 µM and an EC50 [2] of 0.03 µM.

Compound `COc1ccc(N(C)C(=O)[C@H](Cc2ccccc2)NC(=O)Cn2c(=O)n(CC(=O)N[C@@H](Cc3ccccc3)C(=O)N(C)c3ccc(OC)cc3)c3cc(F)ccc32)cc1` [Example 75] has a CC50 at 4 days [1] of 11.5 µM and an EC50 [2] of 0.08 µM.

With `COc1ccc(N(C)C(=O)[C@H](Cc2cc(F)cc(F)c2)NC(=O)Cn2c(=O)n(CC(=O)N[C@@H](Cc3cc(F)cc(F)c3)C(=O)N(C)c3ccc(OC)cc3)c3cc(F)ccc32)cc1` [Example 76] the CC50 at 4 days [1] was 11.4 µM and the EC50 [2] was 0.03 µM.

With `COc1ccc(N(C)C(=O)[C@H](Cc2ccccc2)NC(=O)CC(C)(C)CC(=O)N[C@@H](Cc2ccccc2)C(=O)N(C)c2ccc(OC)cc2)cc1` [Example 77] the CC50 at 4 days [1] was 9.6 µM and the EC50 [2] was 3.98 µM.

`COc1ccc(N(C)C(=O)[C@H](Cc2ccccc2)NC(=O)CC2(CC(=O)N[C@@H](Cc3ccccc3)C(=O)N(C)c3ccc(OC)cc3)CCCC2)cc1` [Example 78] showed a CC50 at 4 days [1] of at least 50 µM and an EC50 [2] of 50 µM.

`COc1ccc(N(C)C(=O)[C@H](Cc2ccccc2)NC(=O)c2ccccc2-c2ccccc2C(=O)N[C@@H](Cc2ccccc2)C(=O)N(C)c2ccc(OC)cc2)cc1` [Example 79] showed a CC50 at 4 days [1] of at least 100 µM and an EC50 [2] of 1.4 µM.

— US20180072997A1, “INHIBITORS OF HUMAN IMMUNODEFICIENCY VIRUS REPLICATION” (ViiV HEATHCARE UK (NO.5) LIMITED, priority 2015, published 2018)
